The source of these data is publication PMC9804470, “A Formylglycine‐Peptide for the Site‐Directed Identification of Phosphotyrosine‐Mimetic Fragments” (Chemistry (Weinheim an Der Bergstrasse, Germany), 2022).

*1 amine or outer side, *2 acyl side, *3 side chain or, on linkers, in order; H or OH if unused. [ ]: non-standard residue; d: D form. F2Pmp = N[C@@H](Cc1ccc(C(F)(F)P(=O)(O)O)cc1)C(=O)O; fGly = 2-formylglycine, O=C[C@H](N[*:1])C(=O)[*:2]; Dap = NC[C@H](N)C(=O)O

The target of series [1] is T1, catalytic domain of human PTP1B (Homo sapiens, UniProt P18031).
T1 construct: catalytic domain of human PTP1B (amino acids 1–321); His7 (N, cleaved yes); made in house; host or cells: E. coli Rosetta (DE3)
T1 sequence (P18031 1-321): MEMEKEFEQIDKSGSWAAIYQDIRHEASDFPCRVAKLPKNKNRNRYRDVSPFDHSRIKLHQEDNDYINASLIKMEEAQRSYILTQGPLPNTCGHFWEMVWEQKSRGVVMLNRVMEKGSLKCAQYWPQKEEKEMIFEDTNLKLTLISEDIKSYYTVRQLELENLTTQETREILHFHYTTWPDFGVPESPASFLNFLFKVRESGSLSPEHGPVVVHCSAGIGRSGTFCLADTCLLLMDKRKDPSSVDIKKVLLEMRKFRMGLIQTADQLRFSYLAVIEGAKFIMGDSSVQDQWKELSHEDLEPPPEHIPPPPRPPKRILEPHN
Briefly: Enzyme activity assay of PTP1B with fluorogenic substrate DiFMUP. The format is biochemical. The conditions noted are these: SD; read-out: KI PTP1B. On the procedure:
Protein Expression and purification: DNA encoding the catalytic domain of human PTP1B (amino acids 1–321) was subcloned into the pQLinkH vector. The gene encoding the N‐terminal His7‐tagged protein was over‐expressed at 17 °C in E. coli Rosetta (DE3). […] The His7‐tag was cleaved with tobacco etch virus protease at 20 °C prior to the gel‐filtration step. The catalytic domain of human SHP2 (amino acids 225–541) was purified from E. coli B21 (DE3). The overexpressed protein was fused to an N‐terminal His10‐tag. Cells were harvested and resuspended in 25 mM Tris‐HCl (pH=7.5), 50 mM NaCl, 1 % (v/v) Triton X‐100, 10 % (v/v) glycerol, 1 mM DTT. After cell lysis, debris was removed by centrifugation at 12,000 rpm for 30 min. The supernatant was filtered prior to affinity purification with Ni‐NTA agarose (Qiagen). The slurry was washed with 50 mM Tris‐HCl (pH=8.0), 500 mM NaCl supplemented with 25 mM imidazole. Reasonably pure protein was eluted with 200–300 mM imidazole. The purification was completed by size‐exclusion chromatography with a Superdex 75 16/600 column (GE Healthcare) equilibrated with 20 mM HEPES‐NaOH (pH=7.5), 50 mM NaCl, 1 mM DTT.
Enzyme activity assays of SHP2 and PTP1B: The catalytic activity of SHP2 catalytic domain and PTP1B were monitored using the fluorogenic substrate DiFMUP (6,8‐difluoro‐4‐methylumbelliferyl phosphate). Phosphatase reactions were performed at room temperature in 384‐well black plate, clear flat bottom, low flange, non‐binding surface (Corning, Cat# 3766) using a final volume of 20 μL and the following assay buffer conditions: 50 mM MOPS, pH=6.5, 200 mM NaCl, 50 μM TCEP, 0.03 % Tween‐20 (freshly added prior to each measurement). Test compounds were dissolved in DMSO or buffer at stock concentrations of 50, 20 or 10 mM and serially diluted. Enzyme (5 nM PTP1B or 2.5 nM SHP2 catalytic domain) and different concentrations of the tested compounds were incubated in buffer for 30–60 min at room temperature. Measurements were performed with a final concentration of 2.5 % DMSO unless stated otherwise at 37 °C and were performed in triplicate. Enzymatic reactions were started by adding DiFMUP (Invitrogen, cat# D6567) concentrations matching the experimentally determined KM values of the enzymes of 67 μM (PTP1B) or 72 μM (SHP2). Samples were excited at a wavelength of 360 nm and emitted fluorescence was recorded at 460 for 10 min using a microplate reader (infinite M1000 Pro, Tecan). Initial slope of fluorescence was determined in triplicate and IC50 values were calculated with GraphPad Prism 5. Determined IC50 values were converted into the corresponding KI values applying the Cheng Prusoff equation KI =IC50 /(1+[S]/KM ).

A short description of another series: Solubility of peptide 3. The conditions noted are these: in water, buffer, and DMSO; qualitative. Type of series: physicochemical.
For series [2], the system named is HGF‐induced tyrosine phosphorylation of ERK 1/2 in HeLa cells. The series can be described thus: Western blot of p-ERK in HGF-stimulated HeLa cells. The format is cell-based. The conditions noted are these: 1 h treatment, Western blot, DMSO control. How it is done:
Cellular experiments: HeLa cells were cultivated in DMEM buffer with 10 % FCS in 75 cm^2 cell culture flasks at 37 °C, 5 % CO2. At confluency of about 75 %, cells were seeded in a density of 250,000 cells/mL in 6‐well plates and incubated for 24 h. Subsequently, medium was removed and replaced by DMEM buffer with 0.1 % BSA (1 mL per well) and incubated for another 16 h. Hepatocyte growth factor (HGF, 20 ng/well) and test compounds in different final concentrations (1 μL, in DMSO) were added. Control wells received the same amount of DMSO (final concentration 0.1 %) or no addition. Plates were incubated for 1 h, then washed with cold PBS and shaken with lysis buffer (mPer reagent ThermoScientific # 78501 with 1 mM NaF, 2 mM Na3VO4, 25× protease inhibitor) for 5 min. Cell lysates were transferred to Eppendorf cups and centrifuged at 4 °C with 10,000 g for 10 min. […] The blot was incubated with anti‐phospo‐ERK as primary antibody (Cell Signaling # 9106, dilution 1 : 2000 in TBS‐Tween/ 2 % BSA) overnight at 4 °C, washed 3×5 min with TBS‐Tween, and incubated with anti‐mouse IgG‐hrp as secondary antibody (Santa Cruz # sc2031, 1 : 6000 in TBS‐ Tween/ 2 % BSA, RT, 1.5 h). The blot was again washed 3×5 min with TBS‐Tween and imaged with the ECL system (ThermoScientific # 34080) at Syngene PXi Imager. From the same lysis sample, under the same conditions, ERK 1/2 and β‐tubulin were blotted. For β‐tubulin, the antibody incubation time was adjusted to 2 h at RT.
A general note: In western blotting, separated proteins are transferred to a membrane and probed.

The subject of a further series is SHP2 signaling. The conditions noted are these: cited from earlier work. From the text: (§1) Our next goal was to validate the three phosphotyrosine mimetics F1, F2, and F4 identified by fragment ligation screening as substructures of heterocyclic and cell‐penetrating SHP2‐inhibitors. The potent SHP2‐specific inhibitor GS‐493 was selected as a reference compound. […] In combination with a kinase inhibitor, GS‐493 ...

The subject of a further series is mammary gland tumors. The conditions noted are these: endogeneous cancer model; cited from earlier work.
Text: as §1

A further series relates to pancreas cancer. The conditions noted are these: in combination with a kinase inhibitor; cited from earlier work.
Text: as §1

The next series concerns the target T2, peptide 16 (Homo sapiens, UniProt P00533, not fully specified (residue 5); also: formylglycine reductively aminated with aryl amine F4, place not in chain).
T2 chain: Ac-DADEYL-NH2
Briefly: DiFMUP enzyme inhibition assay.

For a further series, the target named is T3, peptide 18 (Homo sapiens, UniProt P00533).
T3 chain: Ac-DADE[Dap](4‑trifluoromethylsulfonylamido‑phenyl)L-NH2
The series can be described thus: DiFMUP enzyme inhibition assay.

For series [3], the target named is T4, peptide 2 Ac-DADE(PDFM-F)L-NH2 (Homo sapiens, UniProt P00533).
T4 chain: Ac-DADE[F2Pmp]L-NH2
Briefly: DiFMUP enzyme inhibition assay.

In the next series the target is T5, formylglycine peptide 3 (Homo sapiens, UniProt P00533).
T5 chain: Ac-DADE[fGly]L-NH2
The series can be described thus: DiFMUP enzyme inhibition assay.

Another series addresses T6, peptide 17 (Homo sapiens, UniProt P00533, not fully specified (residue 5); also: reduced Knoevenagel product of formylglycine with barbituric acid, place not in chain).
T6 chain: Ac-DADEYL-NH2
The series can be described thus: DiFMUP enzyme inhibition assay.

For a further series, the target named is T7, peptide 15 (Homo sapiens, UniProt P00533, not fully specified (residue 5); also: formylglycine reductively aminated with 4-amino-phenyl-acetic acid F1, place not in chain).
T7 chain: Ac-DADEYL-NH2
The series can be described thus: DiFMUP enzyme inhibition assay.

A word on the Ki: it is the dissociation constant of the complex between target and ligand, obtained from inhibition or displacement. On to `CC(=O)N[C@@H](CC(=O)O)C(=O)N[C@@H](C)C(=O)N[C@@H](CC(=O)O)C(=O)N[C@@H](CCC(=O)O)C(=O)NC(C=O)C(=O)N[C@@H](CC(C)C)C(N)=O` (stereo partly drawn) [Compound 3, N‐Acetyl‐L‐aspartyl‐L‐alaninyl‐L‐aspartyl‐L‐glutamyl‐2‐formylglycyl‐L‐leucinyl‐amide], for which the Ki in series [1] was found to be 484 ± 30 µM. Also, the Solubility result in “Solubility of peptide 3” is on record as “highly soluble”.
Consider `O=C1/C(=N\Nc2ccc(S(=O)(=O)O)cc2)C(c2ccc([N+](=O)[O-])cc2)=NN1c1ccc([N+](=O)[O-])cc1` [GS‐493], for which, in [2], the “Effect on HGF‐induced tyrosine phosphorylation of ERK 1/2” value was “decreased”. Besides, the “Block of SHP2 signaling in cancer cells and animal models” value in the series on SHP2 signaling was “able to block SHP2 signaling”. Further, in the series with mammary gland tumors, the “Effect on development of mammary gland tumors” value is listed as “able to block the development of mammary gland tumors”. For the same molecule, in the series with pancreas cancer, the “Effect on pancreas cancer” value is on record as “able to suppress pancreas cancer”.

B1: PTP1B 1-321 (protein)
chain: MEMEKEFEQIDKSGSWAAIYQDIRHEASDFPCRVAKLPKNKNRNRYRDVSPFDHSRIKLHQEDNDYINASLIKMEEAQRSYILTQGPLPNTCGHFWEMVWEQKSRGVVMLNRVMEKGSLKCAQYWPQKEEKEMIFEDTNLKLTLISEDIKSYYTVRQLELENLTTQETREILHFHYTTWPDFGVPESPASFLNFLFKVRESGSLSPEHGPVVVHCSAGIGRSGTFCLADTCLLLMDKRKDPSSVDIKKVLLEMRKFRMGLIQTADQLRFSYLAVIEGAKFIMGDSSVQDQWKELSHEDLEPPPEHIPPPPRPPKRILEPHN
Turning to B1, the Ki with peptide 16 came to 213 µM; with peptide 18 it was 202 µM; in [3], 1.4 µM; with formylglycine peptide 3, 484 µM; with peptide 17, 123 µM; in the series with peptide 15 it was 138 µM.
